The text below walks through data of patent US11613535B2, “Compounds for MYC inhibition” (THE SCRIPPS RESEARCH INSTITUTE, priority 2018, dated 2023).

Converted amounts (≈) assume the structure as drawn.

The nature of series [1]: Solubility analysis by dynamic light scattering. Format: physicochemical. As for the experimental part:
(§1) Compound solubilities were measured by dynamic light scattering (Table 1). […] 2. Detection was conducted on a graphene surface. 3. A His-tagged bHLH construct was immobilized on a chip for site-specific functionalization. […] Compounds were also screened against a monomeric form of MAX (mMAX), as well as MYC-MAX and MAX-MAX dimers.
Solubility analysis. Compounds were analyzed for solubility by dynamic light scattering on a DynaPro NanoStar detector (Wyatt Technology). Compounds were dissolved in MES (pH 6.0) from a 1000×DMSO stock at varying concentrations. Samples were analyzed for aggregation and the maximal concentration at which aggregates were not observed was used as the measure of solubility.

The target in the next series is T1, His-tagged MYC (Homo sapiens, UniProt P01106).
T1 construct: A His-tagged bHLH construct was immobilized on a chip for site-specific functionalization; made in house; host or cells: BL21 E. coli
Briefly: Bio-FET relative binding studies. As to conditions: Relative to 5a Req; compounds at 10 μM in MES (pH 6.0) with 3% DMSO. The method, then:
as §1
Protein expression and purification. His-tagged MYC, mMAX, MYC-MAX, and MAX-MAX constructs were expressed in BL21 E. coli cells and purified as previously described.^10
FET functionalization and regeneration. FET experiments were conducted on an Agile R100 (Nanomedical Diagnostics) at ambient temperature. Chips were functionalized with Ni-NTA according to manufacturer protocols. […] Ni-NTA functionalized chips were regenerated via treatment with 250 mM imidazole for 30 mins, followed by extensive washing in MES, then reintroduction of His-tagged protein.
Relative binding studies. Test compounds were dissolved to desired concentration in MES (pH 6.0) buffer with 3% DMSO. Protein-bound chips were initialized and rinsed in MES buffer with 3% DMSO. For relative binding studies, 6-8 test compounds (including 5a) were analyzed at 10 μM in a single run, and the Req determined and compared to that of 5a. Compounds were tested a minimum of three times across different chips.

Series [2] concerns CEF transfected with ATG-MYC. Briefly: CEF focus assay (microtumor formation). Format: cell-based, chicken. As to conditions: Measured in CEF transfected with ATG-MYC. From the text: The lead exemplified compound in the prior patent application is termed KJ-Pyr-9 herein. […] CEF assay.
In another series the target is T2, MYC (Homo sapiens, UniProt P01106).
T2 construct: A His-tagged bHLH construct was immobilized on a chip for site-specific functionalization; made in house; host or cells: BL21 E. coli
As to the kind of experiment: MYC affinity assessment by Bio-FET concentration curve. As to conditions: concentration for ½ Rmax, averaged across three chips. Format: binding. As for the experimental part:
(§2) A 10 mg/kg i.v. PK study was conducted in mouse to determine if these favored properties translated into improved PK. Non-compartmental analysis of the mouse PK followed by allometric scaling to the rat afforded a comparison to the rat PK study conducted previously on 5a and is shown in Table 2.
FET functionalization and regeneration. FET experiments were conducted on an Agile R100 (Nanomedical Diagnostics) at ambient temperature. Chips were functionalized with Ni-NTA according to manufacturer protocols. Surface-bound Ni-NTA sites were then bound to His-tagged protein by 15 min incubation with ˜100 nM protein in 50 mM MES (pH 6.0). Ni-NTA functionalized chips were regenerated via treatment with 250 mM imidazole for 30 mins, followed by extensive washing in MES, then reintroduction of His-tagged protein.
MYC affinity assessment. […] Varying concentrations of 5g were allowed to equilibrate with MYC, and the Req values plotted against the concentration. […] This was repeated across three chips and the affinity averaged across those three runs.

Series [3] is described as follows: PK analysis of 5g, 10 mg/kg i.v. Format: in vivo, C57BL/6 mice. As for the experimental part: as §2
PK analysis. Pharmacokinetic analysis of 5g was conducted by Explora Biolabs. 12 C57BL/6 (6 male, 6 female) mice were administered 5g at 10 mg/kg by IV injection. Blood samples were collected at 2 min and 0.08, 0.25, 0.5, 1, 2, 8 and 24 hours post-injection. Bioanalysis was conducted by Integrated Analytical Solutions by processing through a Shimadzu VP series 10 system LC followed by mass analysis on an Applied Biosystems/MDS SCIEX API 3000 triple quadrupole mass spectrometer. All procedures involving the care and use of animals was approved by the IACUC at Explora BioLabs.

T1 sequence (P01106 369-421 limits assumed): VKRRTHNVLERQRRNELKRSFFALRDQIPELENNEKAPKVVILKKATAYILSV
T2 sequence (P01106 369-421 limits assumed): as above

Consider `N#Cc1ccc(-c2cc(-c3ccc(C(N)=O)cc3)ccn2)cc1` [Compound 7a], for which, in series [1] (pH 6), the Solubility was 32 µM (≈ 9.58 µg/mL). In addition, the “FET Req” value on His-tagged MYC is reported as 0%. The IC50 in series [2] is 10 µM.

Regarding `NC(=O)c1ccc(-c2cc(-c3ccc(-c4nccs4)cc3)nc(-c3ccco3)c2)cc1` [Compound 5g], in series [1] (Measured by DLS in MES (pH 6.0) with <0.1% DMSO), the Solubility worked out at 125 µM (≈ 52.9 µg/mL). Moreover, the “FET Req” value on His-tagged MYC is recorded as 97%. This compound also yielded an IC50 in series [2] (Gallus gallus) of 5 µM. In addition, binding on MYC was put at a Kd of 0.0125 ± 0.0041 µM. In addition, in series [3] (5g versus 5a), the “improvement in exposure (AUC)” value was determined as 30 fold. In series [3] (5g, 10 mg/kg i.v. mouse PK, comparison), this compound displayed a mean residence time of 4.8 h. Besides, in series [3] (5g, 10 mg/kg i.v., C57Bl6 mice), the AUC is given as 44,000 ng*h/mL, the CI stood at 3.8 mL/min/kg, the Half-life worked out at 4.8 h and the Vss is recorded as 0.97 L. Besides, the MRT in series [3] (both sexes, C57BL/6, mouse, blood, iv, 5g, 10 mg/kg i.v., C57Bl6 mice) was determined as 4.3 h.

The compound `N#Cc1ccc(-c2cccc(-c3ccco3)n2)cc1` [Compound 7b] registered a Solubility in series [1] (pH 6) of 10 µM (≈ 2.46 µg/mL). In addition, the “FET Req” value at His-tagged MYC was found to be 0%.
